Test results as given in PubChem BioAssay AID248 (DTP/NCI, 2004).
Values joined by “and” are separate entries in the source; they are usually repeats but may differ in a detail not shown here. Equal entries are not always repeated. Toxic doses and inconclusive results are not listed.

Tested on: L1210 leukemia ip in BDF1 mice, survival T/C
Assay: NCI In Vivo Anticancer Drug Screen. Data for tumor model L1210 Leukemia (intraperitoneal) in B6D2F1 (BDF1) mice
Settings: endpoint: mean survival time, higher = longer survival
Outline: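 Antitumor effect is assessed in tumor-bearing animals. Survival in the compound arm is compared with a vehicle-dosed control arm and expressed as their quotient.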

[1] = dose: 100.0 mg/kg/injection, schedule: Q04DX002 (ip), vehicle: saline with Tween-80
[2] = dose: 100.0 mg/kg/injection, schedule: Q01DX001 (ip), vehicle: Klucel (hydroxypropylcellulose) (HPC)
[3] = dose: 100.0 mg/kg/injection, schedule: Q01DX009 (ip), vehicle: Klucel (hydroxypropylcellulose) (HPC)
[4] = dose: 100.0 mg/kg/injection, schedule: Q04DX003 (ip), vehicle: Klucel (hydroxypropylcellulose) (HPC)
[5] = dose: 200.0 mg/kg/injection, schedule: Q01DX001 (ip), vehicle: Klucel (hydroxypropylcellulose) (HPC)
[6] = dose: 200.0 mg/kg/injection, schedule: Q01DX009 (ip), vehicle: Klucel (hydroxypropylcellulose) (HPC)
[7] = dose: 200.0 mg/kg/injection, schedule: Q04DX003 (ip), vehicle: Klucel (hydroxypropylcellulose) (HPC)
[8] = dose: 400.0 mg/kg/injection, schedule: Q01DX001 (ip), vehicle: Klucel (hydroxypropylcellulose) (HPC)
[9] = dose: 400.0 mg/kg/injection, schedule: Q01DX009 (ip), vehicle: Klucel (hydroxypropylcellulose) (HPC)
[10] = dose: 400.0 mg/kg/injection, schedule: Q04DX003 (ip), vehicle: Klucel (hydroxypropylcellulose) (HPC)
[11] = dose: 100.0 mg/kg/injection, schedule: Q01DX009 (ip), vehicle: saline
[12] = dose: 100.0 mg/kg/injection, schedule: Q04DX003 (ip), vehicle: saline
[13] = dose: 200.0 mg/kg/injection, schedule: Q01DX009 (ip), vehicle: saline
[14] = dose: 200.0 mg/kg/injection, schedule: Q04DX003 (ip), vehicle: saline
[15] = dose: 100.0 mg/kg/injection, schedule: Q04DX002 (ip), vehicle: saline
[16] = dose: 200.0 mg/kg/injection, schedule: Q04DX002 (ip), vehicle: saline
[17] = dose: 100.0 mg/kg/injection, schedule: Q04DX002 (ip), vehicle: Klucel (hydroxypropylcellulose) (HPC)
[18] = dose: 200.0 mg/kg/injection, schedule: Q04DX002 (ip), vehicle: Klucel (hydroxypropylcellulose) (HPC)
[19] = dose: 400.0 mg/kg/injection, schedule: Q04DX002 (ip), vehicle: Klucel (hydroxypropylcellulose) (HPC)
[20] = dose: 25.0 mg/kg/injection, schedule: Q01DX009 (ip), vehicle: Klucel (hydroxypropylcellulose) (HPC)
[21] = dose: 25.0 mg/kg/injection, schedule: Q04DX003 (ip), vehicle: Klucel (hydroxypropylcellulose) (HPC)
[22] = dose: 100.0 mg/kg/injection, schedule: Q04DX003 (ip), vehicle: saline with Tween-80
[23] = dose: 200.0 mg/kg/injection, schedule: Q04DX003 (ip), vehicle: saline with Tween-80
[24] = dose: 400.0 mg/kg/injection, schedule: Q04DX003 (ip), vehicle: saline with Tween-80

SMILES: N=C(N)N(CC(=O)O)Cc1ccccc1
- T/C [1]: 101 % of control
- T/C (dose: 200.0 mg/kg/injection, schedule: Q04DX002 (ip), vehicle: saline with Tween-80): 114 % of control
- T/C (dose: 400.0 mg/kg/injection, schedule: Q04DX002 (ip), vehicle: saline with Tween-80): 104 % of control

SMILES: O=C(NC(=O)C(Cl)Cl)Nc1cccc2c1Cc1ccccc1-2
- T/C (dose: 50.0 mg/kg/injection, schedule: Q04DX003 (ip), vehicle: Klucel (hydroxypropylcellulose) (HPC)): 105 % of control
- T/C [2]: 100 % of control
- T/C [3]: 98 % of control
- T/C [4]: 96 % of control and 101 % of control
- T/C [5]: 89 % of control
- T/C [6]: 93 % of control
- T/C [7]: 100 % of control
- T/C [8]: 94 % of control
- T/C [9]: 93 % of control
- T/C [10]: 90 % of control and 92 % of control

SMILES: O=[N+]([O-])c1ccc(N/N=C/CC(O)CO)c([N+](=O)[O-])c1 (configuration not stated)
- T/C [11]: 89 % of control
- T/C [12]: 90 % of control
- T/C [13]: 86 % of control
- T/C [14]: 90 % of control
- T/C (dose: 400.0 mg/kg/injection, schedule: Q01DX009 (ip), vehicle: saline): 94 % of control
- T/C (dose: 400.0 mg/kg/injection, schedule: Q04DX003 (ip), vehicle: saline): 91 % of control

SMILES: COc1cccnc1/C=N/NC(N)=S
- T/C (dose: 12.5 mg/kg/injection, schedule: Q01DX009 (ip), vehicle: saline with Tween-80): 150 % of control

SMILES: O=C(O)C(Br)C(Br)C(=O)O (configuration not stated)
- T/C [15]: 92 % of control
- T/C [4]: 97 % of control
- T/C [16]: 100 % of control
- T/C [7]: 103 % of control
- T/C [10]: 95 % of control

SMILES: Cc1cccc(NC(=O)Nc2ccccc2F)n1
- T/C [2]: 96 % of control
- T/C [3]: 96 % of control
- T/C [17]: 94 % of control and 87 % of control
- T/C [4]: 99 % of control
- T/C [5]: 91 % of control
- T/C [6]: 96 % of control and 88 % of control
- T/C [18]: 96 % of control and 91 % of control
- T/C [7]: 111 % of control
- T/C [9]: 105 % of control and 88 % of control
- T/C [19]: 87 % of control and 91 % of control
- T/C [10]: 97 % of control

SMILES: CNC(=O)OCC1=CC(=O)C(OC)=CC1=O
- T/C (dose: 0.37 mg/kg/injection, schedule: Q01DX009 (ip), vehicle: Klucel (hydroxypropylcellulose) (HPC)): 91 % of control
- T/C (dose: 0.75 mg/kg/injection, schedule: Q01DX009 (ip), vehicle: Klucel (hydroxypropylcellulose) (HPC)): 98 % of control
- T/C (dose: 12.5 mg/kg/injection, schedule: Q04DX003 (ip), vehicle: Klucel (hydroxypropylcellulose) (HPC)): 92 % of control
- T/C [20]: 88 % of control
- T/C [21]: 103 % of control

SMILES: Cc1ccccc1NC(=O)NCCCl
- T/C [22]: 88 % of control
- T/C [23]: 88 % of control
- T/C [24]: 98 % of control

SMILES: C=C1CC(CCCC2CC(=C)C(=O)O2)OC1=O (configuration not stated)
- T/C [15]: 101 % of control
- T/C [16]: 111 % of control

SMILES: N#CC(C(=O)Nc1cccc(C(F)(F)F)c1)C(=S)Nc1ccccc1Cl (configuration not stated)
- T/C (dose: 25.0 mg/kg/injection, schedule: Q04DX002 (ip), vehicle: saline with Tween-80): 102 % of control
- T/C (dose: 50.0 mg/kg/injection, schedule: Q04DX002 (ip), vehicle: saline with Tween-80): 105 % of control
- T/C [1]: 101 % of control and 105 % of control

SMILES: C1=C(N2CCOCC2)CCC(N2CCOCC2)=C1
- T/C (dose: 50.0 mg/kg/injection, schedule: Q01DX009 (ip), vehicle: saline): 108 % of control
- T/C [11]: 95 % of control
- T/C [12]: 98 % of control
- T/C [13]: 95 % of control
- T/C [14]: 95 % of control

SMILES: C=CCOCC(O)CN(C)CCCCCCCCCCCC (configuration not stated)
- T/C (dose: 6.0 mg/kg/injection, schedule: Q04DX003 (ip), vehicle: Klucel (hydroxypropylcellulose) (HPC)): 98 % of control
- T/C (dose: 12.0 mg/kg/injection, schedule: Q04DX003 (ip), vehicle: Klucel (hydroxypropylcellulose) (HPC)): 96 % of control
- T/C [20]: 109 % of control
- T/C [21]: 93 % of control and 96 % of control
- T/C (dose: 50.0 mg/kg/injection, schedule: Q01DX009 (ip), vehicle: Klucel (hydroxypropylcellulose) (HPC)): 109 % of control
- T/C [4]: 96 % of control

SMILES: CC1(C)c2ccccc2C(O)(CCl)c2ccccc21
- T/C [4]: 104 % of control
- T/C [7]: 112 % of control
- T/C [10]: 94 % of control

SMILES: CCOC(=O)CC/C(=C/c1ccccc1)[N+](=O)[O-]
- T/C (dose: 25.0 mg/kg/injection, schedule: Q04DX003 (ip), vehicle: saline with Tween-80): 97 % of control and 104 % of control
- T/C (dose: 50.0 mg/kg/injection, schedule: Q04DX003 (ip), vehicle: saline with Tween-80): 94 % of control and 98 % of control
- T/C [22]: 106 % of control and 107 % of control and 121 % of control
- T/C [23]: 89 % of control

SMILES: Nc1nc(N)c(-c2ccc(Cl)c(Cl)c2)c(COc2ccc(CCNS(=O)(=O)c3ccc(S(=O)(=O)F)cc3)cc2)n1
- T/C (dose: 25.0 mg/kg/injection, schedule: Q01DX001 (ip), vehicle: Klucel (hydroxypropylcellulose) (HPC)): 96 % of control
- T/C (dose: 50.0 mg/kg/injection, schedule: Q01DX001 (ip), vehicle: Klucel (hydroxypropylcellulose) (HPC)): 102 % of control
- T/C [2]: 96 % of control

SMILES: CCNC(C)(C)C(Cl)c1cccs1 (configuration not stated)
- T/C [11]: 101 % of control
- T/C [12]: 96 % of control
- T/C [13]: 100 % of control
- T/C [14]: 93 % of control

SMILES: CCOC(=O)C(=O)Nc1ccc([N+](=O)[O-])cc1
- T/C [22]: 87 % of control
- T/C [23]: 98 % of control
- T/C [24]: 87 % of control

SMILES: CNC(=N)c1ccc(NC(=N)c2ccc(NC(=N)c3ccc(NC(=O)Nc4ccc(C(=N)Nc5ccc(C(=N)Nc6ccc(C(=N)NC)cc6)cc5)cc4)cc3)cc2)cc1
- T/C (dose: 6.25 mg/kg/injection, schedule: Q01DX001 (ip), vehicle: water): 112 % of control
- T/C (dose: 12.5 mg/kg/injection, schedule: Q01DX001 (ip), vehicle: water): 108 % of control
- T/C (dose: 16.0 mg/kg/injection, schedule: Q01DX015 (ip), vehicle: water): 157 % of control
- T/C (dose: 25.0 mg/kg/injection, schedule: Q01DX001 (ip), vehicle: water): 112 % of control
- T/C (dose: 31.0 mg/kg/injection, schedule: Q01DX015 (ip), vehicle: water): 214 % of control

SMILES: O=[N+]([O-])c1cccc(/C=C/c2ccc(S(=O)(=O)F)cc2)c1
- T/C [22]: 95 % of control
- T/C [23]: 90 % of control

SMILES: CC(C)(C)c1cc(/C=N/NC(=O)CCCCCCCCC(=O)N/N=C/c2cc(C(C)(C)C)c(O)c(C(C)(C)C)c2)cc(C(C)(C)C)c1O
- T/C [2]: 104 % of control
- T/C [3]: 94 % of control
- T/C [17]: 109 % of control
- T/C [4]: 111 % of control
- T/C [5]: 103 % of control
- T/C [6]: 94 % of control and 90 % of control
- T/C [18]: 100 % of control
- T/C [7]: 110 % of control
- T/C [8]: 93 % of control
- T/C [19]: 102 % of control
- T/C [10]: 108 % of control

SMILES: Cc1c(-c2ccc(Cl)cc2)nc2cc(Cl)ccc2c1C(=O)O
- T/C (dose: 100.0 mg/kg/injection, schedule: Q01DX005 (ip), vehicle: saline): 107 % of control
- T/C [11]: 100 % of control
- T/C (dose: 200.0 mg/kg/injection, schedule: Q01DX005 (ip), vehicle: saline): 93 % of control
- T/C [13]: 103 % of control
- T/C (dose: 400.0 mg/kg/injection, schedule: Q01DX005 (ip), vehicle: saline): 91 % of control

SMILES: OC(OCC(COC(O)C(Br)Br)(COC(O)C(Br)Br)COC(O)C(Br)Br)C(Br)Br (configuration not stated)
- T/C (dose: 50.0 mg/kg/injection, schedule: Q01DX001 (ip), vehicle: carboxymethylcellulose (CMC)): 101 % of control
- T/C (dose: 100.0 mg/kg/injection, schedule: Q01DX001 (ip), vehicle: carboxymethylcellulose (CMC)): 95 % of control
- T/C (dose: 200.0 mg/kg/injection, schedule: Q01DX001 (ip), vehicle: carboxymethylcellulose (CMC)): 92 % of control
- T/C (dose: 400.0 mg/kg/injection, schedule: Q01DX001 (ip), vehicle: carboxymethylcellulose (CMC)): 95 % of control

SMILES: Cc1ccc(S(=O)(=O)N(SSN(c2ccccc2)S(=O)(=O)c2ccc(C)cc2)c2ccccc2)cc1
- T/C (dose: 100.0 mg/kg/injection, schedule: Q04DX002 (ip), vehicle: carboxymethylcellulose (CMC)): 95 % of control and 98 % of control
- T/C (dose: 200.0 mg/kg/injection, schedule: Q04DX002 (ip), vehicle: carboxymethylcellulose (CMC)): 95 % of control and 101 % of control
- T/C (dose: 400.0 mg/kg/injection, schedule: Q04DX002 (ip), vehicle: carboxymethylcellulose (CMC)): 95 % of control and 106 % of control
